Results reported in patent US7795310B2, “Methods and reagents for the treatment of metabolic disorders” (CombinatoRx, Inc., priority 2004, dated 2010).
Where a name gives a salt, the structure may show the parent alone. Read-outs that look alike come from different tables or passages of the source.

How the values were obtained:
3T3-L1 adipocytes [1] = assay: Screening assay: insulin-stimulated 14C-glucose uptake by adipocytes (Example 3; F, sF, S/N); format: cell-based, mouse
Protocol: These assays were conducted as follows.
(§1) Complete media, also referred to as “Prees” media, was prepared as follows. Dulbecco's Modified Eagle's Medium (DMEM) was supplemented with L-glutamine, penicillin-G and streptomycin (pen/strep), and heat-inactivated fetal bovine serum (FBS) (heat inactivated at […] for 30 minutes). Because serum can affect the growth, adherence, and differentiation of cells, any new lot of serum was first tested prior to use. Media was equilibrated in the incubator (5% CO2) until the pH was within the proper range (˜7), as indicated by the red/orange color of the indicator dye. If the media became pink (indicating a high pH), we discarded the media as basic conditions can affect cells and denature the insulin used in the differentiation medium-1 (DM1) and the differentiation medium-2 (DM2).
Differentiation media-2 (DM2) was prepared by supplementing DMEM with 10% FBS, L-glutamine, pen/strep, and insulin (120 nM).
(§2) Cell culture plates were gelatinized as follows. Gelatin (1% w/v in distilled water) was autoclaved and stored at room temperature. The bottom of each cell culture well was covered uniformly in the gelatin solution, ensuring that no bubbles were formed. This solution was removed leaving behind a thin film of gelatin. These plates were left to dry under the tissue culture hood. Plates were next washed with PBS, after which a 0.5% glutaric dialdehyde solution (glutaraldehyde in distilled water) was added to the cell culture wells. After ten minutes, wells were washed twice with DMEM containing pen-strep. Each washing step should last for approximately five minutes.
(§3) 3T3-L1 pre-adipocyte cells were split approximately every 2-3 days or upon reaching a confluence of approximately 60%. Overconfluency may affect the ability of these cells to differentiate into adipocytes.
(§4) D-(+)-glucose (“cold” glucose, not radiolabeled) was added to DPBS mix to a final concentration of 10 mM.
(§5) Lysis buffer, a mixture of a base (e.g., sodium hydroxide at a final concentration of 0.5N) and a detergent (e.g., sodium dodecyl sulphate (SDS) diluted to a final concentration of 0.1% w/v) was freshly prepared each time (within one to two hours of use). Prior to use, lysis buffer was warmed up to a temperature exceeding that of room temperature for a period of approximately 30 minutes to avoid precipitation of the buffer.
(§6) Pre-adipocyte 3T3-L1 cells were plated at a density of approximately 5000 cells/well (in black NUNC 96 well plate). These cells were differentiated into adipocytes in two separate steps. Initially, cells were cultured in differentiation medium-1 (DM1) (day 1 of adipocyte differentation) for a period of two to three days. DM1 prevents proliferation and induces the expression of adipocyte-specific genes. Cells were next cultured in differentiation medium-2 (DM2) for 3 to 4 days, after which the culture media was replaced by fresh DM2. The glucose uptake assay was performed at day 9-15 of differentiation.
Two days prior to the experiment (at day 7-13 of differentiation), DM2 was removed and replaced with fresh Prees media. Candidate compounds were added at this time, allowing an incubation period of approximately 48 hours. On the day of the experiment, cells (now at day 9 to 15 of differentiation) were serum starved for three hours in DPBS, magnesium sulfate (0.8 mM), and Hepes (10 mM) at pH ˜7. After this incubation period, fresh DPBS containing insulin (10 nM) was added to the adipocytes. Fresh DPBS without any insulin were placed on cells that served as a negative control. Following an incubation period of 25 minutes at 37° C., radioactive glucose (labeled with ^14C, at a final concentration of 0.04 mM, ˜0.26 μCi ^14C-glucose in each well) was added to the media for a period of 15 minutes at room temperature. Media was next removed and cells were washed thoroughly and lysed. Upon lysis, cells form a small, cloudy mass, detached from the well bottom.

human skeletal myoblasts = assay: Glycogen synthesis from radiolabeled glucose in skeletal myoblasts (Example 3; Xlsyz); format: cell-based
Protocol: In another set of experiments, human skeletal myoblasts obtained by the conditional immortalization of cells derived from a non-diabetic subject, were used to screen the effect of a multitude of compounds on glycogen synthesis. For each compound, two doses were tested in triplicate. The vehicle was used as a negative control and insulin was used as a positive control. Prior to treatment, cells were serum-starved for 12 to 18 hours in Ham's F10 medium. Cells were next incubated either with the test compounds or control for a period of two hours in serum-free media containing radiolabeled glucose, after which, glycogen synthesis was measured.

3T3-L1 adipocytes [2] = assay: Insulin-stimulated 14C-glucose uptake in differentiated adipocytes (Example 1); format: cell-based, mouse
Protocol: Differentiated mouse adipocytes were employed to identify combinations of agents that have the ability to increase glucose uptake upon insulin stimulation, as detected by scintillation counting of radiolabelled glucose (using, for example, the Perkin Elmer 1450 Microbeta JET reader). These assays were conducted as follows.
as §1
Differentiation media-1 (DM1) was prepared by supplementing DMEM with 10% FBS, L-glutamine, pen/strep, IBMX (375 μM), insulin (120 nM), and dexamethasone (188 nM). Differentiation media-2 (DM2) was prepared by supplementing DMEM with 10% FBS, L-glutamine, pen/strep, and insulin (120 nM).
as §2, §3, §4, §5, §6
Two days prior to the experiment (at day 7-13 of differentiation), DM2 was removed and replaced with fresh Prees media. Candidate compounds were added at this time, allowing an incubation period of approximately 48 hours. On the day of the experiment, cells (now at day 9 to 15 of differentiation) were serum starved for three hours in DPBS, magnesium sulfate (0.8 mM), and Hepes (10 mM) at pH ˜7. After this incubation period, fresh DPBS containing insulin (10 nM) was added to the adipocytes. Fresh DPBS without any insulin were placed on cells that served as a negative control. […]

[3] = insulin-stimulated 14C-glucose uptake, 3T3-L1 adipocytes, about 48 h with compound, 10 nM insulin, test concentration per compound in column CRx uM
[4] = glycogen synthesis, human skeletal myoblasts, 2 h, dose (H)
[5] = glycogen synthesis, human skeletal myoblasts, 2 h, dose (L), concentration per compound uM(L)

Row | Compound | CRx F (3T3-L1 adipocytes [1]; [3]) | Xlsyz F(H) (human skeletal myoblasts; [4]) | Xlsyz F(L) (human skeletal myoblasts; [5]) | also measured
1 | CC(=O)Nc1ccc(O)cc1 [Acetaminophen] | 1.021 |  |  | 
2 | CC(=O)Nc1nnc(S(N)(=O)=O)s1 [Acetazolamide] | 0.8994 |  |  | 
3 | CC(=O)O[C@H]1C[C@H](O[C@H]2[C@@H](O)C[C@H](O[C@H]3[C@@H](O)C[C@H](O[C@H]4CC[C@@]5(C)[C@H](CC[C@@H]6[C@@H]5CC[C@]5(C)[C@@H](C7=CC(=O)OC7)CC[C@]65O)C4)O[C@@H]3C)O[C@@H]2C)O[C@H](C)[C@H]1O [Acetyldigitoxin] | 0.8077 | 1.2593 | 1.3016 | 
4 | Cl.N [Ammonium Chloride] |  | 1.2105 | 0.8482 | CRx F (3T3-L1 adipocytes [1]): 0.8881
5 | CCCCNCC(O)c1ccc(O)cc1 (stereo not drawn) [Bamethan] | 1.1895 | 1.3846 | 0.9106 | 
6 | CC(C)(Oc1ccc(CCNC(=O)c2ccc(Cl)cc2)cc1)C(=O)O [Bezafibrate] |  |  |  | average fold increase in insulin-stimulated glucose uptake compared to vehicle treated control (3T3-L1 adipocytes [2]; Bezafibrate 9 μM, Cinnamic acid 0 μM, average of three biological replicates): 0.94 fold; average fold increase in insulin-stimulated glucose uptake compared to vehicle treated control (3T3-L1 adipocytes [2]; Bezafibrate 9 μM, Diflunisal 0 μM, average of four biological replicates): 1.16 fold; average fold increase in insulin-stimulated glucose uptake compared to vehicle treated control (3T3-L1 adipocytes [2]; Bezafibrate 18 μM, Cinnamic acid 0 μM, average of three biological replicates): 1.21 fold; average fold increase in insulin-stimulated glucose uptake compared to vehicle treated control (3T3-L1 adipocytes [2]; Bezafibrate 18 μM, Diflunisal 0 μM, average of four biological replicates): 1.37 fold; average fold increase in insulin-stimulated glucose uptake compared to vehicle treated control (3T3-L1 adipocytes [2]; Bezafibrate 36 μM, Cinnamic acid 0 μM, average of three biological replicates): 1.15 fold; average fold increase in insulin-stimulated glucose uptake compared to vehicle treated control (3T3-L1 adipocytes [2]; Bezafibrate 36 μM, Diflunisal 0 μM, average of four biological replicates): 1.57 fold
7 | [Ca+2].[Cl-].[Cl-] [Calcium Chloride] |  |  |  | CRx F (3T3-L1 adipocytes [1]): 0.7358; Xlsyz F(H) (human skeletal myoblasts): 1.2121; Xlsyz F(L) (human skeletal myoblasts): 1.0714
8 | C[C@H](CS)C(=O)N1CCC[C@H]1C(=O)O [Captopril] | 0.662 |  |  | 
9 | NC(=O)N1c2ccccc2C=Cc2ccccc21 [Carbamazepine] | 0.7464 |  |  | 
10 | O=C(O)C=Cc1ccccc1 [Cinnamic acid, 3-phenyl-2-propenoic acid] |  |  |  | average fold increase in insulin-stimulated glucose uptake compared to vehicle treated control (3T3-L1 adipocytes [2]; Cinnamic acid 3 μM, Bezafibrate 0 μM, average of three biological replicates): 0.98 fold; average fold increase in insulin-stimulated glucose uptake compared to vehicle treated control (3T3-L1 adipocytes [2]; Cinnamic acid 6 μM, Bezafibrate 0 μM, average of three biological replicates): 1.03 fold; average fold increase in insulin-stimulated glucose uptake compared to vehicle treated control (3T3-L1 adipocytes [2]; Cinnamic acid 12 μM, Bezafibrate 0 μM, average of three biological replicates): 1.10 fold
11 | [Cl][Cu][Cl] [Cupric Chloride] | 1.3661 | 1.25 | 1.0643 | 
12 | O=C(O)Cc1ccccc1Nc1c(Cl)cccc1Cl [Diclofenac Sodium] | 1.3966 |  |  | 
13 | Cc1onc(-c2c(Cl)cccc2Cl)c1C(=O)N[C@@H]1C(=O)N2[C@@H]1SC(C)(C)[C@@H]2C(=O)O [Dicloxacillin Sodium] | 1.0042 |  |  | 
14 | C[C@H]1O[C@@H](O[C@H]2[C@@H](O)C[C@H](O[C@H]3[C@@H](O)C[C@H](O[C@H]4CC[C@@]5(C)[C@H](CC[C@@H]6[C@@H]5CC[C@]5(C)[C@@H](C7=CC(=O)OC7)CC[C@]65O)C4)O[C@@H]3C)O[C@@H]2C)C[C@H](O)[C@@H]1O [Digitoxin] | 0.8801 |  |  | 
15 | C[C@H](N[C@@H](CCc1ccccc1)C(=O)O)C(=O)N1CCC[C@H]1C(=O)O [Enalaprilat] | 0.992 | 0.8333 | 1.2739 | 
16 | COc1cc([C@@H]2c3cc4c(cc3[C@@H](O[C@@H]3O[C@@H]5CO[C@@H](C)O[C@H]5[C@H](O)[C@H]3O)[C@H]3COC(=O)[C@H]23)OCO4)cc(OC)c1O [Etoposide] | 1.037 |  |  | 
17 | CCC(Cc1c(I)cc(I)c(O)c1I)C(=O)O (stereo not drawn) [Iohenoxic Acid] | 1.0641 | 1.2119 | 1.0504 | 
18 | CCN(CC)C(=S)[S-].CCN(CC)C(=S)[S-].[Pb+2] [LEAD DIETHYLDITHIOCARBAMATE] | 1.524 | 1.2527 | 1.064 | 
19 | CCN(CC)CC#CCOC(=O)C(O)(c1ccccc1)C1CCCCC1 (stereo not drawn) [Oxybutynin Chloride] | 1.0483 |  |  | 
20 | O=C1NC(=O)C(c2ccccc2)(c2ccccc2)N1 [PHENYTOIN] | 1.1755 |  |  | 
21 | CCCCC1C(=O)N(c2ccccc2)N(c2ccccc2)C1=O [Phenylbutazone] | 1.2098 |  |  | 
22 | CCN(CC)CCCC(C)Nc1c2ccc(Cl)cc2nc2ccc(OC)cc12 (stereo not drawn) [QUINACRINE] | 1.0058 |  |  | 
23 | Cc1cc(NS(=O)(=O)c2ccc(N)cc2)nc(C)n1 [Sulfasomidine] | 1.1803 | 1.3077 | 1.0165 | 
24 | CC(C)(C)NCC(O)c1cc(O)cc(O)c1 (stereo not drawn) [Terbutaline Sulfate] | 1.2758 |  |  | 
25 | CCS(=O)(=O)CCn1c([N+](=O)[O-])cnc1C [Tinidazole] | 1.0177 |  |  | 
26 | c1ccc(CC2=NCCN2)cc1 [Tolazoline Hydrochloride] | 0.967 |  |  | 
27 | Inulin | 1.0249 | 1.0089 | 1.3377 | 
28 | Invertase | 1.2175 | 0.8561 | 1.3974 | 
29 | Metaproterenol Hemisulfate Salt | 1.7249 | 1.1261 | 1.4052 | 
